Active and inactive are the calls of the source.
What was measured:
CAAX prenyl protease 2 = CAAX prenyl protease 2 (Saccharomyces cerevisiae S288c, UniProt Q03530); format: biochemical
Trypsin = Trypsin (Sus scrofa, UniProt P00761); assay: trypsin protease activity blockade – biochemical, quenched peptide fluorescence, cherry-pick, selectivity assay for Rce1 protease inhibitor project, dose response (AID 488789)
Large T antigen = Large T antigen (Simian virus 40, UniProt P03070); format: functional, Betapolyomavirus macacae;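 note: Confirmatory-stage PubChem screen for compounds that inhibit SV40 T antigen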
Sequence of Large T antigen (P03070 whole entry): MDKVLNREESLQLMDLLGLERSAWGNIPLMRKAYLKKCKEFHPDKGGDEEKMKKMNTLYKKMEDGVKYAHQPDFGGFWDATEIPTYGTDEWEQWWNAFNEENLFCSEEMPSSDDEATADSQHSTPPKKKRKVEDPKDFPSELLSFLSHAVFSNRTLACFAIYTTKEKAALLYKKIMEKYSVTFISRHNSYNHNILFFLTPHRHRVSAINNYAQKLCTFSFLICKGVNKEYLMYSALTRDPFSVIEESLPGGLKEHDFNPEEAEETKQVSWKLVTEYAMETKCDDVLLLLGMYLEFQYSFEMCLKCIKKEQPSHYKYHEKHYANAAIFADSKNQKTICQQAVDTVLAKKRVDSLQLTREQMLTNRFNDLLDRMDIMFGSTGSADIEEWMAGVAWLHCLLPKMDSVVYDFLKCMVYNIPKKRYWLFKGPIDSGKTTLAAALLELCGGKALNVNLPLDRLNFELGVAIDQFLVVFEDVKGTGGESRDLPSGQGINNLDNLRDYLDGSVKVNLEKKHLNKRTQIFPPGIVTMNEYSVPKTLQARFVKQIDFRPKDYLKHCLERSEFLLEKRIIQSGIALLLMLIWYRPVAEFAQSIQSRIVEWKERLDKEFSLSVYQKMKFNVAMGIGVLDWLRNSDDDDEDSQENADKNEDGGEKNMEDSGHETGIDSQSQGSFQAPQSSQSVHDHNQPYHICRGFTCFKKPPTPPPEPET

Hexokinase = Hexokinase (Trypanosoma brucei, UniProt Q38C41); assay: Confirmation assay for inhibitors of Trypanosoma brucei hexokinase 1-Analogue-first series. [Related pubchem assays (depositor defined):AID1430, AID1632, AID2516, AID2560, AID2579, AID2600, AID449725, AID492951]; format: functional
Sequence of Hexokinase (Q38C41 whole entry): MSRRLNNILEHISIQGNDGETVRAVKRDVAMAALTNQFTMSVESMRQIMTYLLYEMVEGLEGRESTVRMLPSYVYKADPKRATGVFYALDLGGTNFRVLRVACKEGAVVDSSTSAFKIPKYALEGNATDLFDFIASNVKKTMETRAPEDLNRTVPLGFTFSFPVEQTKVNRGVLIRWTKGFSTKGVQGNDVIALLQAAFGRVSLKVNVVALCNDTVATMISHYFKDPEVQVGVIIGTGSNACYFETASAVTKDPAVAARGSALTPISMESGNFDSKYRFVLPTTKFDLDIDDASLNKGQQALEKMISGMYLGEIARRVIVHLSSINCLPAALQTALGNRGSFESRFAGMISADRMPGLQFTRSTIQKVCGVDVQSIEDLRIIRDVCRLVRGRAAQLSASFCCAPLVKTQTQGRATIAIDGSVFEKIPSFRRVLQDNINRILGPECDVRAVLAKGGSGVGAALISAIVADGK

[1] = molecular target: Glucose-6-phosphate 1-dehydrogenase (Homo sapiens, UniProt P11413); assay: inhibition of Homo sapiens G6PD, dose series – biochemical, fluorescence, selectivity assay for P. falciparum G6PD inhibitor project, dose response (AID 504792); format: functional
Sequence of Glucose-6-phosphate 1-dehydrogenase (P11413 whole entry): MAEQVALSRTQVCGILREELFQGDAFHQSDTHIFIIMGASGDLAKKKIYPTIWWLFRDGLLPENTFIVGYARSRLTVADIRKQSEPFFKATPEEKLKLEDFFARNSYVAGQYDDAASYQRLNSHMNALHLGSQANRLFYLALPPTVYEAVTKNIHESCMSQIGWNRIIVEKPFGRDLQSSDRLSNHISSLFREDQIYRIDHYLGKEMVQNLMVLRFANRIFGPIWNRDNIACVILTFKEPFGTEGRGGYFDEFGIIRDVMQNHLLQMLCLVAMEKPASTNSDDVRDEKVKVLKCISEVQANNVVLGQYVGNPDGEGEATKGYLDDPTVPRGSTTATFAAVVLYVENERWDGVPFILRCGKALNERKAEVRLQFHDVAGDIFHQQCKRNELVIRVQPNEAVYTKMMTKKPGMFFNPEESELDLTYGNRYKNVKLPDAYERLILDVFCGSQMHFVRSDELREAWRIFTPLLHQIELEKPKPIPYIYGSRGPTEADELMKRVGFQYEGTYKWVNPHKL

[2] = molecular target: T1, Mitochondrial peptide methionine sulfoxide reductase (Bos taurus, UniProt P54149); assay: Absorbance-based biochemical high throughput dose response assay for activators of Methionine sulfoxide reductase A (MsrA).; format: functional
T1 sequence (P54149 whole entry): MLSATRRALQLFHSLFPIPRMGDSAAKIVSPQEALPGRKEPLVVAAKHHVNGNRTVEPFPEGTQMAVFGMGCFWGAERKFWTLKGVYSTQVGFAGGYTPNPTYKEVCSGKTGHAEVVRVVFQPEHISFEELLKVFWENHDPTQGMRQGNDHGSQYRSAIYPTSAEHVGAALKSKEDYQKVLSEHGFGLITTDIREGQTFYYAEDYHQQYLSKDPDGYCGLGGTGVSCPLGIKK

[3] = molecular target: Alkaline phosphatase, placental type (Homo sapiens, UniProt P05187); assay: human placental alkaline phosphatase inhibition – biochemical, luminescence, confirmation (AID 1512); format: functional
Sequence of Alkaline phosphatase, placental type (P05187 whole entry): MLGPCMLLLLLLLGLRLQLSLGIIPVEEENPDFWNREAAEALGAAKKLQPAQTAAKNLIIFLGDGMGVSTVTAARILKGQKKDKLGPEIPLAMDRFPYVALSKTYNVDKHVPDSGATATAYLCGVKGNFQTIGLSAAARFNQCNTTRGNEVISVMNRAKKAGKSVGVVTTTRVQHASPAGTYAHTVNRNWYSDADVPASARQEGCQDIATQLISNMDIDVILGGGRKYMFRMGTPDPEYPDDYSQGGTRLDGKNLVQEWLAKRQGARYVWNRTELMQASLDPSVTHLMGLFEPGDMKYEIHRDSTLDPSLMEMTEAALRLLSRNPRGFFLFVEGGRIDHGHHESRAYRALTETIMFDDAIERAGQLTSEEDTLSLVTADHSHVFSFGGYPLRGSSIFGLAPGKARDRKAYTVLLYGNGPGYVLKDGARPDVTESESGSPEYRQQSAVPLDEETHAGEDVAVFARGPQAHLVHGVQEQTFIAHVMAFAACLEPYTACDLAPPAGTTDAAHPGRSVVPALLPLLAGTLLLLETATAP

[4] = molecular target: T2, Alkaline phosphatase, tissue-nonspecific isozyme (Homo sapiens, UniProt P05186); assay: potency against alkaline phosphatase TNAP – biochemical, luminescent, dose response, SAR follow-up (AID 1056)
T2 sequence (P05186 whole entry): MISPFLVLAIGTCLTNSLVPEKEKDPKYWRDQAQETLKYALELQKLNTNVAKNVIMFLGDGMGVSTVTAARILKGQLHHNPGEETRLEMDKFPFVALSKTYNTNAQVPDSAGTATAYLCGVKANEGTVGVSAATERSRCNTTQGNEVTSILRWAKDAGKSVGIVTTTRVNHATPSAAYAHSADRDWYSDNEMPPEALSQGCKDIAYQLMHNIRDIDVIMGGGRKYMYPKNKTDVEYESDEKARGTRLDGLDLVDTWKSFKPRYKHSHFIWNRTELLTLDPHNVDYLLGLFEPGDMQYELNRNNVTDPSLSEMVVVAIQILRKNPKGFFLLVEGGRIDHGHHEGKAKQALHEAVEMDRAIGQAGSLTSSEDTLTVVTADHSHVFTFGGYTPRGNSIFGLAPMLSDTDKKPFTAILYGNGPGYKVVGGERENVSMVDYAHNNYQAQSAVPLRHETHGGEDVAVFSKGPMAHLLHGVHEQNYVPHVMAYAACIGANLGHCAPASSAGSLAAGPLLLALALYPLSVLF

[5] = molecular target: T3, Runt-related transcription factor 1/Core-binding factor subunit beta (Homo sapiens, UniProt Q01196+Q13951); assay: Runt domain/CBFb-SMMHC interaction disruptors – biochemical, TR-FRET (AID 1438); format: protein assay
T3 sequence (Q01196 whole entry, the tested form may be a part): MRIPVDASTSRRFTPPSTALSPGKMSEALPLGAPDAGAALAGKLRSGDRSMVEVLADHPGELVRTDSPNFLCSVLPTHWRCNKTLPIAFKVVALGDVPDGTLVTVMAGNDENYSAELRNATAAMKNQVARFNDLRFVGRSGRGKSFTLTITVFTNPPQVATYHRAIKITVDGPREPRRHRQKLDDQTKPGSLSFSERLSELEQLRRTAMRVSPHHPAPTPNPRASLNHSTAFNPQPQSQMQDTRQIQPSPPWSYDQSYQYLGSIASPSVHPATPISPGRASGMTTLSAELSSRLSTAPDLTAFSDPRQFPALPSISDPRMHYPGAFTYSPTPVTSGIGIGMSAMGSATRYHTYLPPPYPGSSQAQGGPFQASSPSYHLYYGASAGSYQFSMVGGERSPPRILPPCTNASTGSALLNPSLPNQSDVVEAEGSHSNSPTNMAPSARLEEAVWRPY
T3 sequence (Q13951 whole entry, the tested form may be a part): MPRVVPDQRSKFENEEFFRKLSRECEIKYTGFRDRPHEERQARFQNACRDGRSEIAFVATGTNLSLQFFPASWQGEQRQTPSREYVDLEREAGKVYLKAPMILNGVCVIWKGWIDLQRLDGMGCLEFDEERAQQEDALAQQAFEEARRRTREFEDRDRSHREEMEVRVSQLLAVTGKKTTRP

[6] = viability of uninfected HEp-2 cells – cell-based, HTS, cytotoxicity control for RSV inhibitor project, dose response (AID 2410); format: functional; conditions: human respiratory syncytial virus
[7] = molecular target: T3, Runt-related transcription factor 1/Core-binding factor subunit beta; assay: disruptors of Runt domain/CBFb-SMMHC interaction – biochemical, FRET, Cerulean-Runt, Venus-CBFb-SMMHC, uHTS, […] (AID 1434); format: protein assay

Sequence of CAAX prenyl protease 2 (Q03530 whole entry): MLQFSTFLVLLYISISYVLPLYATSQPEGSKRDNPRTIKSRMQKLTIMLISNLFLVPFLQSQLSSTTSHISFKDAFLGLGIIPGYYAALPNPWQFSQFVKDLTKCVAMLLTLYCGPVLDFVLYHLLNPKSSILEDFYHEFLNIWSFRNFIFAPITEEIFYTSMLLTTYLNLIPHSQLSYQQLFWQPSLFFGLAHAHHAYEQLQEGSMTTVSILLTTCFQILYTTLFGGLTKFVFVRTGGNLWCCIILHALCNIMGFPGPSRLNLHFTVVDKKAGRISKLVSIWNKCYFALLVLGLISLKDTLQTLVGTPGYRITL
Sequence of Trypsin (P00761 whole entry): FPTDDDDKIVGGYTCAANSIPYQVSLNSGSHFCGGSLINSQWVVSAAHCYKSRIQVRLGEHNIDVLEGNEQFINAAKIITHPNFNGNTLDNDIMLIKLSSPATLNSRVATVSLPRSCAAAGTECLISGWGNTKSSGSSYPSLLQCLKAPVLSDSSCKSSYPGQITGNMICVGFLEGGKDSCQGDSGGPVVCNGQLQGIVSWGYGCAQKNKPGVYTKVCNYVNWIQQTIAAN

With `O=C(O)c1ccc(-c2ccc(O)c(F)c2)cc1` the AC50 (CAAX prenyl protease 2) was > 100 µM (inactive), the AC50 (Trypsin) was 11.9 µM (active) and the IC50 (Large T antigen) was 6.76 µM (active).

For `COC(=O)c1ccc(Cl)cc1NC(=O)c1ccccc1OC`, the IC50 (Hexokinase) was > 25 µM (inactive).

With `N#Cc1ccc2sn(-c3ccccc3)c(=O)c2c1` the IC50 (Hexokinase) was 2.97 µM (active), the IC50 [1] was 14.1 µM (active) and the EC50 [2] was > 104 µM (inactive).

For `O=C(NC1(C(F)(F)F)Oc2ccccc2O1)c1ccc(Cl)cc1`, the IC50 [3] was > 100 µM (inactive) and the IC50 [4] was > 100 µM (inactive).

In the case of `Nc1c(C(=O)NCc2ccco2)c2nc3ccccc3nc2n1CCc1ccccc1F`, the IC50 [5] is reported as 86.3 µM (inactive), the CC50 [6] is reported as 24.3 µM (active) and the IC50 [7] is reported as 13.7 µM (active).

From ChEMBL document CHEMBL1201862, “PubChem BioAssay data set” (2004)
